What all share (assay type): binding
Experiment [1] has as its target T1, N-His-Tb-BIR3(241-356, XIAP) (Homo sapiens, UniProt P98170).
T1 construct: additions of N-His-Tb-BIR3(241-356, XIAP), fluoresceinated modified SMAC peptide; Tb (meaning not explained; sits between His tag and BIR3) (N)
In words: XIAP-BIR3 SMAC Peptide Fluorescence Polarization Assay (FPA). On the procedure:
A. XIAP-BIR3 SMAC Peptide Fluorescence Polarization Assay (FPA) Assays were performed in black, flat-bottom, 384-well plates. The final assay volume was 50 μL prepared from additions of N-His-Tb-BIR3(241-356, XIAP), fluoresceinated modified SMAC peptide, and test compounds in assay buffer consisting of 20 mM Sodium Phosphate, 1 mM EDTA, 50 mM NaCl, and 0.05% Pluronic F68. The reaction was incubated at room temperature for 60 minutes and fluorescence polarization of the reaction was detected on the LJL Plate Reader. Inhibition data were calculated from mP values generated by the no protein control reactions for 100% inhibition and vehicle-only reactions for 0% inhibition. The final concentration of reagents in the assay was 130 nM N-His-Tb-BIR3(241-356, XIAP), 1.4 nM fluoresceinated modified SMAC peptide, and 1% DMSO. Dose response curves were generated to determine the concentration required for inhibiting 50% of polarization activity (IC50). Compounds were dissolved at 10 mM in dimethylsulfoxide (DMSO) and evaluated at eleven concentrations. IC50 values were derived by non-linear regression analysis.
In general terms: Fluorescence polarisation rises when a labelled molecule tumbles more slowly, as on binding a larger partner.

Experiment [2] deals with T2, His-BIR2 (124-240/C202A/C213G) (Homo sapiens, UniProt P98170, C202A/C213G).
T2 construct: additions of His-BIR2 (124-240/C202A/C213G), Biotinylated SMAC peptide
The experiment in a line: XIAP-BIR2/SMAC Peptide AlphaScreen Assay. On the procedure:
C. XIAP-BIR2/SMAC Peptide AlphaScreen Assay
Assays were performed in white, flat-bottom, 384-well ProxiPlates (Perkin Elmer). […]. The reaction was incubated at room temperature for 60 minutes. After 60 minutes, 2.5 μL of Alphascreen detection reagent (Perkin Elmer) was added to the reaction mixture and incubated at room temperature in the dark for 120 minutes. The Alphascreen signal generated by the reaction was detected on the Envision Plate Reader. Inhibition data were calculated from an Alphascreen signal generated by the no protein control reactions for 100% inhibition and vehicle-only reactions for 0% inhibition. […]
Biotinylated SMAC peptide, 4 μg/mL Alphascreen detection reagents, and 0.5% DMSO. Dose response curves were generated to determine the concentration required for inhibiting 50% of the activity (IC50). Compounds were dissolved at 10 mM in dimethylsulfoxide (DMSO) and evaluated at eleven concentrations. IC50 values were derived by non-linear regression analysis.
A general note: Bead proximity is the source of the signal in Alpha formats.

Experiment [3] deals with T3, His-BIR2-3 (125-356, C202A/C213G, XIAP) (Homo sapiens, UniProt P98170, C202A/C213G).
T3 construct: additions of His-BIR2-3 (125-356, C202A/C213G, XIAP), fluorescein labeled dimeric SMAC peptide
The experiment in a line: XIAP-BIR2-3 Dimeric SMAC Peptide Homogeneous Time Resolved Fluorescence (HTRF) Assay. To be noted: fluorescein labeled dimeric SMAC peptide.

A further experiment deals with T4, His-BIR3 (241-356, XIAP) (Homo sapiens, UniProt P98170).
T4 construct: additions of His-BIR3 (241-356, XIAP), fluorescein labeled SMAC peptide
In words: XIAP-BIR3/SMAC Homogeneous Time Resolved Fluorescence (HTRF) Assay. To be noted: fluorescein labeled SMAC peptide. In general terms: In TR-FRET formats the signal depends on donor and acceptor labels being close together.

[4] abbreviates: fluorescence polarization, fluoresceinated modified SMAC peptide, read-out: BIR3 FPA IC50.
[5] abbreviates: read-out: BIR2 ALPHA IC50, biotinylated SMAC peptide.
The mark [6] stands for this setting: read-out: BIR3 FPA IC50, fluorescence polarization, fluoresceinated modified SMAC peptide.
Where [7] appears, read: biotinylated SMAC peptide, read-out: BIR2 ALPHA IC50.

The structures appear in SMILES notation. Like-named read-outs stand apart in the source and are kept apart here.

T2 sequence (P98170 124-240 C202A/C213G): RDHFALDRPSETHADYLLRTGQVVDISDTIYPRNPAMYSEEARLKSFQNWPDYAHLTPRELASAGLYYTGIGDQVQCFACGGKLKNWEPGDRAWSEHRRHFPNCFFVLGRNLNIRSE
T3 sequence (P98170 125-356 C202A/C213G): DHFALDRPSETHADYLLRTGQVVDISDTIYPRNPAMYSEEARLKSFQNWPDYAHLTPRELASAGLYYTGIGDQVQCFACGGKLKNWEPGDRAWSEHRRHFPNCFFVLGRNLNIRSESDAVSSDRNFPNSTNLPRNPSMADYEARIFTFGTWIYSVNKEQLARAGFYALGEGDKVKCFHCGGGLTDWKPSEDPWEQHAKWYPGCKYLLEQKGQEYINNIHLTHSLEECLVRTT
T1 sequence (P98170 241-356): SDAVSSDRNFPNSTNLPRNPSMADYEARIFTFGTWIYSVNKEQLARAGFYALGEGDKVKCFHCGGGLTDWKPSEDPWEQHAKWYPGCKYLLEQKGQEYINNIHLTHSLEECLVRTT
T4 sequence (P98170 241-356): as above

Turning to `CNC(C)C(=O)NC(C(=O)N1CC2CC1C(=O)NC(Cc1ccc3ccccc3c1)C(=O)NC(C(=O)O)Cc1ccc(cc1)OCC=CCOC1CC(C(=O)NC(Cc3ccc4ccccc4c3)C(=O)NC(C(=O)NS(C)(=O)=O)Cc3ccc(cc3)OCc3cn2nn3)N(C(=O)C(NC(=O)C(C)NC)C(C)(C)C)C1)C(C)(C)C` (stereo not shown) [Example 5], the IC50 turned out to be 50 nM in experiment [1] (setting [4]) and 71.5 nM in experiment [2] (setting [5]).

On to `CNC(C)C(=O)NC(C(=O)N1CC2CC1C(=O)NC(Cc1ccc3ccccc3c1)C(=O)NC(C(=O)O)Cc1ccc(cc1)OCCCCOC1CC(C(=O)NC(Cc3ccc4ccccc4c3)C(=O)NC(C(=O)NS(C)(=O)=O)Cc3ccc(cc3)OCc3cn2nn3)N(C(=O)C(NC(=O)C(C)NC)C(C)(C)C)C1)C(C)(C)C` (stereo not shown) [Example 8], for which the IC50 was determined as 49.6 nM in experiment [1] (setting [4]) and 190 nM in experiment [2] (setting [5]).

`CNC(C)C(=O)NC(C(=O)N1CC2CC1C(=O)NC(Cc1ccc3ccccc3c1)C(=O)NC(C(=O)O)Cc1ccc(cc1)OCC=CCOC1CC(C(=O)NC(Cc3ccc4ccccc4c3)C(=O)NC(C(=O)O)Cc3ccc(cc3)C(=O)N2)N(C(=O)C(NC(=O)C(C)NC)C(C)(C)C)C1)C(C)(C)C` (stereo not shown) [Example 32]: the figures for the IC50 in experiment [1] (setting [6]) and in experiment [2] (setting [7]) were 36.1 nM and 16.2 nM, respectively.

In the case of `CN[C@@H](C)C(=O)N[C@H](C(=O)N1C[C@@H]2C[C@H]1C(=O)N[C@@H](Cc1ccc3ccccc3c1)C(=O)N[C@H](C(=O)O)COC/C=C/CO[C@H]1C[C@@H](C(=O)N[C@@H](Cc3ccc4ccccc4c3)C(=O)N[C@H](C(=O)O)CCC(=O)N2)N(C(=O)[C@@H](NC(=O)[C@H](C)NC)C(C)(C)C)C1)C(C)(C)C` [Example 34], the IC50 turned out to be 40.1 nM in experiment [1] and 33.6 nM in experiment [2] (setting [7]).

Consider `CN[C@@H](C)C(=O)N[C@H](C(=O)N1C[C@@H]2C[C@H]1C(=O)N[C@@H](Cc1ccc3ccccc3c1)C(=O)N[C@H](C(=O)O)C/C=C/CO[C@H]1C[C@@H](C(=O)N[C@@H](Cc3ccc4ccccc4c3)C(=O)N[C@H](C(=O)O)CCC(=O)N2)N(C(=O)[C@@H](NC(=O)[C@H](C)NC)C(C)(C)C)C1)C(C)(C)C` [Example 35], for which the IC50 in experiment [1] was 47.6 nM; in experiment [2] (setting [7]) it was 49.1 nM.

With `CNC(C)C(=O)NC(C(=O)N1CC2CC1C(=O)NC(Cc1ccc3ccccc3c1)C(=O)NC(C(=O)O)Cc1ccc(cc1)OCC=CCOC1CC(C(=O)NC(Cc3ccc4ccccc4c3)C(=O)NC(C(=O)O)CCCC(=O)N2)N(C(=O)C(NC(=O)C(C)NC)C(C)(C)C)C1)C(C)(C)C` (stereo not shown) [Example 36], the figures for the IC50 in experiment [1] (setting [6]) and in experiment [2] (setting [7]) were 49 nM and 38.8 nM, respectively.

For `CN[C@@H](C)C(=O)N[C@H](C(=O)N1C[C@@H]2C[C@H]1C(=O)N[C@@H](Cc1ccc3ccccc3c1)C(=O)N[C@H](C(=O)O)COC/C=C/CO[C@H]1C[C@@H](C(=O)N[C@@H](Cc3ccc4ccccc4c3)C(=O)N[C@H](C(=O)O)CCCC(=O)N2)N(C(=O)[C@@H](NC(=O)[C@H](C)NC)C(C)(C)C)C1)C(C)(C)C` [Example 37], the IC50 in experiment [1] worked out at 33 nM; in experiment [2] (setting [7]), 58.2 nM.

Regarding `CN[C@@H](C)C(=O)N[C@H](C(=O)N1C[C@@H]2C[C@H]1C(=O)N[C@@H](Cc1ccc3ccccc3c1)C(=O)N[C@H](C(=O)O)C/C=C/CO[C@H]1C[C@@H](C(=O)N[C@@H](Cc3ccc4ccccc4c3)C(=O)N[C@H](C(=O)O)CCCC(=O)N2)N(C(=O)[C@@H](NC(=O)[C@H](C)NC)C(C)(C)C)C1)C(C)(C)C` [Example 38], the figures for the IC50 in experiment [1] and in experiment [2] (setting [7]) were 42.1 nM and 116 nM, respectively.

Consider `CN[C@@H](C)C(=O)N[C@H](C(=O)N1C[C@@H]2C[C@H]1C(=O)N[C@@H](Cc1ccc3ccccc3c1)C(=O)N[C@H](C(=O)O)Cc1ccc(cc1)CCCC[C@H]1C[C@@H](C(=O)N[C@@H](Cc3ccc4ccccc4c3)C(=O)N[C@H](C(=O)NS(=O)(=O)C3CC3)Cc3ccc(cc3)OCc3cn2nn3)N(C(=O)[C@@H](NC(=O)[C@H](C)NC)C(C)(C)C)C1)C(C)(C)C` [Example 119], for which the IC50 in experiment [3] worked out at 3.4 nM; against His-BIR3 (241-356, XIAP), 2.8 nM.

As to `CN[C@@H](C)C(=O)N[C@H](C(=O)N1C[C@@H]2C[C@H]1C(=O)N[C@@H](Cc1ccc3ccccc3c1)C(=O)N[C@H](C(=O)O)Cc1ccc(cc1)OCCCCO[C@H]1C[C@@H](C(=O)N[C@@H](Cc3ccc4ccccc4c3)C(=O)N[C@H](C(=O)NS(=O)(=O)C3CC3)Cc3ccc(cc3)OCc3cn2nn3)N(C(=O)[C@@H](NC(=O)[C@H](C)NC)C(C)(C)C)C1)C(C)(C)C` [Example 120], the half-inhibitory concentration (IC50) in experiment [3] stood at 8 nM; on His-BIR3 (241-356, XIAP) it was 42 nM.

Turning to `CN[C@@H](C)C(=O)N[C@H](C(=O)N1C[C@@H]2C[C@H]1C(=O)N[C@@H](Cc1ccc3ccccc3c1)C(=O)N[C@H](C(=O)O)Cc1ccc(cc1)OCc1cn(nn1)[C@H]1C[C@@H](C(=O)N[C@@H](Cc3ccc4ccccc4c3)C(=O)N[C@H](C(=O)O)Cc3ccc(cc3)OCCCCO2)N(C(=O)[C@@H](NC(=O)[C@H](C)NC)C(C)(C)C)C1)C(C)(C)C` [Example 121], the IC50 worked out at 7.9 nM in experiment [3] and 11.6 nM against His-BIR3 (241-356, XIAP).

For `CN[C@@H](C)C(=O)N[C@H](C(=O)N1C[C@@H]2C[C@H]1C(=O)N[C@@H](Cc1ccc3ccccc3c1)C(=O)N[C@H](C(=O)O)Cc1ccc(cc1)OCc1cn(nn1)[C@H]1C[C@@H](C(=O)N[C@@H](Cc3ccc4ccccc4c3)C(=O)N[C@H](C(=O)NS(=O)(=O)C3CC3)Cc3ccc(cc3)OCCCCO2)N(C(=O)[C@@H](NC(=O)[C@H](C)NC)C(C)(C)C)C1)C(C)(C)C` [Example 122], the IC50 was determined as 11.3 nM in experiment [3] and 12.9 nM on His-BIR3 (241-356, XIAP).

Regarding `CN[C@@H](C)C(=O)N[C@H](C(=O)N1C[C@@H]2C[C@H]1C(=O)N[C@@H](Cc1ccc3ccccc3c1)C(=O)N[C@H](C(=O)O)Cc1ccc(cc1)OCc1cn(nn1)[C@H]1C[C@@H](C(=O)N[C@@H](Cc3ccc4ccccc4c3)C(=O)N[C@H](C(=O)NS(=O)(=O)C3CC3)Cc3ccc(cc3)OCCCCO2)N(C(=O)[C@@H](NC(=O)[C@H](C)NC)C(C)(C)C)C1)C(C)(C)C` [Example 123], the IC50 in experiment [3] was determined as 5.4 nM; at His-BIR3 (241-356, XIAP), 7.8 nM.

As for `CN[C@@H](C)C(=O)N[C@H](C(=O)N1C[C@@H]2C[C@H]1C(=O)N[C@@H](Cc1ccc3ccccc3c1)C(=O)N[C@H](C(=O)O)Cc1ccc(cc1)OCc1cn(nn1)[C@H]1C[C@@H](C(=O)N[C@@H](Cc3ccc4ccccc4c3)C(=O)N[C@H](C(=O)NS(C)(=O)=O)Cc3ccc(cc3)OCCCCO2)N(C(=O)[C@@H](NC(=O)[C@H](C)NC)C(C)(C)C)C1)C(C)(C)C` [Example 124], the IC50 was determined as 13.6 nM in experiment [3] and 19.4 nM at His-BIR3 (241-356, XIAP).

Take `CN[C@@H](C)C(=O)N[C@H](C(=O)N1C[C@@H]2C[C@H]1C(=O)N[C@@H](Cc1ccc3ccccc3c1)C(=O)N[C@H](C(=O)O)Cc1ccc(cc1)OCCCCO[C@H]1C[C@@H](C(=O)N[C@@H](Cc3ccc4ccccc4c3)C(=O)N[C@H](C(=O)NS(=O)(=O)c3ccccn3)Cc3ccc(cc3)OCc3cn2nn3)N(C(=O)[C@@H](NC(=O)[C@H](C)NC)C(C)(C)C)C1)C(C)(C)C` [Example 125]: the IC50 in experiment [3] was 2.7 nM; on His-BIR3 (241-356, XIAP) it was 3.7 nM.

Turning to `CN[C@@H](C)C(=O)N[C@H](C(=O)N1C[C@@H]2C[C@H]1C(=O)N[C@@H](Cc1ccc3ccccc3c1)C(=O)N[C@H](C(=O)O)Cc1ccc(cc1)CCCCO[C@H]1C[C@@H](C(=O)N[C@@H](Cc3ccc4ccccc4c3)C(=O)N[C@H](C(=O)NS(=O)(=O)C3CC3)Cc3ccc(cc3)OCc3cn2nn3)N(C(=O)[C@@H](NC(=O)[C@H](C)NC)C(C)(C)C)C1)C(C)(C)C` [Example 127], the IC50 in experiment [3] was found to be 7.1 nM; on His-BIR3 (241-356, XIAP), 7.5 nM.

Consider `CN[C@@H](C)C(=O)N[C@H](C(=O)N1C[C@@H]2C[C@H]1C(=O)N[C@@H](Cc1ccc3ccccc3c1)C(=O)N[C@H](C(=O)O)Cc1ccc(cc1)OCc1cn(nn1)[C@H]1C[C@@H](C(=O)N[C@@H](Cc3ccc4ccccc4c3)C(=O)N[C@H](c3nnn[nH]3)Cc3ccc(cc3)OCCCCO2)N(C(=O)[C@@H](NC(=O)[C@H](C)NC)C(C)(C)C)C1)C(C)(C)C` [Example 128], for which the IC50 in experiment [3] came to 3.3 nM; against His-BIR3 (241-356, XIAP) it was 5.5 nM.

Broadly, the IC50 is the midpoint of a concentration-inhibition curve.

The record behind these values is patent US20140135270A1, “MACROCYCLIC COMPOUNDS FOR INHIBITION OF INHIBITORS OF APOPTOSIS” (Ensemble Therapeutics Corp., priority 2012, published 2014).
